According to ChEMBL document CHEMBL1147641, “Highly potent and long-acting trimeric and tetrameric inhibitors of influenza virus neuraminidase” (Bioorg Med Chem Lett, 2004):
≈ marks a conversion by molar mass, not a printed value.

Tests used:
[1] = system: Influenza A virus; test: Antiinfluenza activity of compound against Influenza A/Sydney/5/97 in influenza cytopathic effect (CPE) assay; type: functional, organism-based
[2] = system: Influenza B virus; test: Antiinfluenza activity of compound against Influenza B/Harbin/7/95 in influenza cytopathic effect (CPE) assay; type: functional, organism-based
[3] = system: Mus musculus; test: Reduction in virus titre taken from mouse infected with Influenza A/Singapore/1/57 at 0.1 mg/kg dose in 7 day mouse influenza prevention assay; type: functional
[4] = system: Mus musculus; test: Reduction in virus titre taken from mouse infected with Influenza A/Singapore/1/57 at 1.0 mg/kg dose in 7 day mouse influenza prevention assay; type: functional
[5] = system: Mus musculus; test: Reduction in virus titre taken from mouse infected with Influenza A/Singapore/1/57 at 0.01 mg/kg dose in 7 day mouse influenza prevention assay; type: functional
[6] = system: Mus musculus; test: Reduction in virus titre taken from mouse infected with Influenza A/Singapore/1/57 at 0.4 mg/kg dose in 7 day mouse influenza prevention assay; type: functional
[7] = system: Mus musculus; test: Reduction in virus titre taken from mouse infected with Influenza A/Singapore/1/57 at 1.6 mg/kg dose in 7 day mouse influenza prevention assay; type: functional
[8] = system: Mus musculus; test: Number of virus free mice from total 8 mice infected with Influenza A/Singapore/1/57 after 12.5 mg/kg of intranasal administration for 172 hr prior to viral infection; type: functional
[9] = system: Mus musculus; test: Number of virus free mice from total 9 mice infected with Influenza A/Singapore/1/57 after 12.5 mg/kg of intranasal administration for 145 hr prior to viral infection; type: functional
[10] = system: Mus musculus; test: Number of virus free mice from total 9 mice infected with Influenza A/Singapore/1/57 after 12.5 mg/kg of intranasal administration for 51 hr prior to viral infection; type: functional
[11] = system: Mus musculus; test: Number of virus free mice from total 10 mice infected with Influenza A/Singapore/1/57 after 12.5 mg/kg of intranasal administration for 172 hr prior to viral infection; type: functional
[12] = system: Mus musculus; test: Number of virus free mice from total 10 mice infected with Influenza A/Singapore/1/57 after 12.5 mg/kg of intranasal administration for 117 hr prior to viral infection; type: functional

SMILES	EC50 [1]	EC50 [2]	Effectiveness [3]	Effectiveness [4]	Effectiveness [5]	Effectiveness [6]	Effectiveness [7]	No. of virus free mice [8]	No. of virus free mice [9]	No. of virus free mice [10]	No. of virus free mice [11]	No. of virus free mice [12]
CC(=O)N[C@H]1[C@H]([C@H](OC(=O)NCCCCCCNC(=O)CC(O)(CC(=O)NCCCCCCNC(=O)O[C@@H]([C@@H]2OC(C(=O)O)=C[C@H](N=C(N)N)[C@H]2NC(C)=O)[C@H](O)CO)C(=O)NCCCCCCNC(=O)O[C@@H]([C@@H]2OC(C(=O)O)=C[C@H](NC(=N)N)[C@H]2NC(C)=O)[C@H](O)CO)[C@H](O)CO)OC(C(=O)O)=C[C@@H]1N=C(N)N	0.159 ng/mL (≈ 0.102 nM)	2.48 ng/mL (≈ 1.58 nM)	85.88%	99.11%								
CC(=O)N[C@H]1[C@H]([C@H](OC(=O)NCCCCCCNC(=O)[C@H]2C[C@@H](C(=O)NCCCCCCNC(=O)O[C@@H]([C@@H]3OC(C(=O)O)=C[C@H](NC(=N)N)[C@H]3NC(C)=O)[C@H](O)CO)C[C@@H](C(=O)NCCCCCCNC(=O)O[C@@H]([C@@H]3OC(C(=O)O)=C[C@H](NC(=N)N)[C@H]3NC(C)=O)[C@H](O)CO)C2)[C@H](O)CO)OC(C(=O)O)=C[C@@H]1NC(=N)N	0.3 ng/mL (≈ 0.189 nM)	0.438 ng/mL (≈ 0.276 nM)	94.38%	98.32%								
CC(=O)N[C@H]1[C@H]([C@H](OC(=O)NCCCCCCNC(=O)c2cc(C(=O)NCCCCCCNC(=O)O[C@@H]([C@@H]3OC(C(=O)O)=C[C@H](N=C(N)N)[C@H]3NC(C)=O)[C@H](O)CO)cc(C(=O)NCCCCCCNC(=O)O[C@@H]([C@@H]3OC(C(=O)O)=C[C@H](NC(=N)N)[C@H]3NC(C)=O)[C@H](O)CO)c2)[C@H](O)CO)OC(C(=O)O)=C[C@@H]1N=C(N)N	0.82 ng/mL (≈ 0.519 nM)	1.33 ng/mL (≈ 0.842 nM)	96.24%		70.15%							
CC(=O)N[C@H]1[C@H]([C@H](OC(=O)NCCCCCCNC(=O)CN(CCN(CC(=O)NCCCCCCNC(=O)O[C@@H]([C@@H]2OC(C(=O)O)=C[C@H](N=C(N)N)[C@H]2NC(C)=O)[C@H](O)CO)CC(=O)NCCCCCCNC(=O)O[C@@H]([C@@H]2OC(C(=O)O)=C[C@H](NC(=N)N)[C@H]2NC(C)=O)[C@H](O)CO)CC(=O)NCCCCCCNC(=O)O[C@@H]([C@@H]2OC(C(=O)O)=C[C@H](N=C(N)N)[C@H]2NC(C)=O)[C@H](O)CO)[C@H](O)CO)OC(C(=O)O)=C[C@@H]1N=C(N)N	1.07 ng/mL (≈ 0.505 nM)	2.84 ng/mL (≈ 1.34 nM)	95.53%		68.38%							
CC(=O)N[C@H]1[C@H]([C@H](OC(=O)NCCCCCCNC(=O)c2cc(C(=O)NCCCCCCNC(=O)O[C@@H]([C@@H]3OC(C(=O)O)=C[C@H](N=C(N)N)[C@H]3NC(C)=O)[C@H](O)CO)c(C(=O)NCCCCCCNC(=O)O[C@@H]([C@@H]3OC(C(=O)O)=C[C@H](NC(=N)N)[C@H]3NC(C)=O)[C@H](O)CO)cc2C(=O)NCCCCCCNC(=O)O[C@@H]([C@@H]2OC(C(=O)O)=C[C@H](N=C(N)N)[C@H]2NC(C)=O)[C@H](O)CO)[C@H](O)CO)OC(C(=O)O)=C[C@@H]1N=C(N)N	0.53 ng/mL (≈ 0.255 nM)	0.95 ng/mL (≈ 0.457 nM)	74.88%	99.68%								
CC(=O)N[C@H]1[C@H]([C@H](OC(=O)NCCCCCCN)[C@H](O)CO)OC(C(=O)O)=C[C@@H]1NC(=N)N	438 ng/mL (≈ 923 nM)	213 ng/mL (≈ 449 nM)										
CC(=O)N[C@H]1[C@H]([C@H](OC(=O)NCCCCCCNC(=O)CC(CC(=O)NCCCCCCNC(=O)O[C@@H]([C@@H]2OC(C(=O)O)=C[C@H](N=C(N)N)[C@H]2NC(C)=O)[C@H](O)CO)C(=O)NCCCCCCNC(=O)O[C@@H]([C@@H]2OC(C(=O)O)=C[C@H](NC(=N)N)[C@H]2NC(C)=O)[C@H](O)CO)[C@H](O)CO)OC(C(=O)O)=C[C@@H]1N=C(N)N	0.4 ng/mL (≈ 0.259 nM)	0.81 ng/mL (≈ 0.524 nM)	68.78%	98.24%								
CC(=O)N[C@H]1[C@H]([C@H](O)[C@H](O)CO)OC(C(=O)O)=C[C@@H]1NC(=N)N [ZANAMIVIR]	32.5 ng/mL (≈ 97.8 nM)	12.2 ng/mL (≈ 36.7 nM)		81.76%		0%	97.03%	0	3	3	0	1
